Reference: patent EP2229935A1, “Peptide derivatives or pharmaceutically acceptable salts thereof, method for producing the same, use of said derivatives and pharmaceutical composition” (Nebolsin, Vladimir Evgenievich, priority 1997, dated 1999)
Where two headings read alike, the source gives them in different places. Marks after values point to notes of the source that are not given here.

Legend:
[1] = tested on: Strain Aichi of type A human influenza virus; format: in vivo
[2] = tested on: hepatic P-450 cytochrome system; test: Hexenal sleep duration in mice; format: in vivo; conditions: CBF1 mice; oral 3 days, 50 µg/kg; control 25.91 ± 1.57
Description: Change in Hexenal sleep (HS) duration is the in vivo measurable index of hepatic P-450 cytochrome system condition.
Studies were carried out on male mice of the lines BALB/c*h75, C57B1/6, CBA, DBA/2, first generation CBF1 and BDF1 hybrides, with initial mass 18-20 g, each group including 10 mice; and on mongrel male guinea pigs with initial mass 250-300 g, each group including 24 animals. All the test compounds (from II to LII) were administered orally in drinking water and for three days at doses 50 and 500 µg/kg. Hexenal hydrochloride at a dose […] of animal mass was administered 24 hours after the last drug administration, except for line BALB/c*h75 mice, which were administered Hexenal at a dose 60 µg/kg at the same terms, and guinea pigs for which Hexenal dose was 30 µg/kg. HS duration was determined in minutes.

[3] = tested on: Lewis pulmonary carcinoma (LLC); test: Lewis pulmonary carcinoma growth; format: in vivo; conditions: mice with LLC, day 12; for Growth inhibition percent: compound in drinking water; for Tumor volume (mm^3): compound in drinking water from 24 hours after transplantation
Description: Experiments were carried out on male mice with initial body mass 18-20 g. Each group included 10 animals. […] Administration of compounds II, III, IX, X, XII, XIV, XV, XVI, XVII, XIX, XXII, XLVII in drinking water was commenced 24 hours following transplantation and continued till the end of experiment. Effect of the compounds on Lewis rat pulmonary carcinoma (LLC) was estimated by day 12 of experiment by change in tumor volume expressed in mm^3.

mongrel female rats = test: Hepatoprotective activity: subchronic liver lesion (hepatitis) with CCl4; format: in vivo; conditions: rats, CCl4 hepatitis
Description: Hepatoprotective properties of the compounds were studied on a model of subchronic liver lesion (hepatitis) with carbon quadrichloride.
70 mongrel female rats with initial body mass 190-200 g fed a standard vivarium ration, were used in experiment. Animals were divided into 7 groups (10 rats each): • Group 1 - control one; during the first four days of experiment animals were subcutaneously injected 0.2 ml vaseline oil; • Group 2 - during the first four days animals were subcutaneously injected 50% CCl4 solution in vaseline oil at a rate of 0.1 ml per 100 g body mass; • Group 3 - Legalon in a starch gel was administered orally for 8 days at a dose 30 mg/kg against the background of CCl4 administration; […] , resepectively, was administered in a way similar to group III; […] , resepectively, was administered in a way similar to group III.
The test compounds and Legalon were administered to animals 1 hour prior to CCl4 administration. 24 hours after the last administration of the drugs, animals were decapitated.
Activity of blood serum transaminases ALT and AST was assessed using the conventional Frenkel-Rightman method [Laboratory examination methods in the clinic. Ed. by Menshikov V.V. Moscow, Meditsina publishers (1969), 302 pp.].
The published method [Rodionova L.P. Modification of blood serum trigyceride level determination method. Laboratomoye delo (Laboratory Matter) (1980), No 5, pp. 297-299] was used to determine blood serum TG level.
Blood serum LP final product MDA was determined using the published method [Korobeinikova E.N. Modification of lipid peroxydation product determination in reaction with thiobarbituric acid. Laboratomoye delo (Laboratory Matter) (1989), No 7, pp. 8-10]. Concentration of TBA-active products was calculated using regression equation: C = 0.21 + 0.26D, [formula] where C - concentration of TBA-active products (in nM MDA per 1 ml of serum), D - index D535 -D580 (in optic density units).
Total hepatic lipids were extracted using the modified Folch method [Cates M. Technology of Lipidology. Moscow, Mir publishers (1975), pp. 74-76]. Quantative content of lipid fractions was assessed with thin layer chromatography method (TLC) using the system of solvents hexane:diethyl ether:acetic acid at ratio 80:20:2. Zones of individual lipid fractions were determined using 10% alcohol solution of phosphoromolyobdenic acid which following elution were spectrophotometrically analysed at 600 nm.
Hepatic MDA level was determined using the published method [Stalnaya I.D., Garishvili T.G. Malonic dialdehyde determination method using thiobarbituric acid. In: Modem methods in biochemistry. Moscow, Meditsina publishers (1977), pp. 66-69]. MDA quantity was calculated using molar extinction coefficient value of stained trimethynic complex formed by MDA with two TBA molecules: E = 1.56 × 10^5 (cm)^-1 × M^-1 [formula]

mongrel male rats = test: Hypolipidemic activity: experimental hyperlipidemia (atherogenic load); conditions: atherogenic diet; for Kcs: cholesterol index;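 on all read-outs here: serum drawn 18 h after the final dose from rats deprived of food over that interval, groups of 10 animals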
hydroxyl radical = test: Hydroxyl radical formation in the Fenton reagent (chemiluminescence); format: biochemical
superoxide anion-radical = test: Superoxide anion-radical formation in the xantine-xantine oxidase system (chemiluminescence); format: biochemical
Description: Effect of the compounds of general formula (I) on change in chemiluminescence (CL) determined by hydroxyl radical ( OH) and superoxide anion-radical (O2-), in the model chemical and enzymatic systems.
5 to 10 ml of the test compounds dissolved in water were at needed concentration introduced into a cuvette. A total sample volume was 0.5 ml. • B. Superoxide anion-radical in the mixture of xantine and xantine oxidase [Afanas'ev I., Suslova T., Cheremisina Z. et al. Study of antioxidant properties of metal aspartates.
Incubation medium comprised 5 mM KH2PO4; 0.2 IU/ml xantine oxidase. Xantine at concentration 1 mM was introduced into sample through a dispencer. Luceginine (0.2 mM) was used in this system as luminiscence sensitizer.
CL signal indication was performed by its integration every 10 seconds for 5 minutes. CL flash recording duration after mixing ingredients, depended on a particular process kinetics. For each system, CL light sum (mV) was determined in the control samples without preparations (I-) and in samples comprising respective concentrations of preparations (I+). To estimate CL inhibition (activation) degree, the I+/I- ratio (in relative units) was found in the studied systems.
AOF formation and effect of the test compounds on this process were recorded on the Luminometer-1251 instrument (LKB, Sweden).
Because of such "distension" of the kinetic curve, chemiluminescence light sum was recorded during the first 3-5 minutes which reflected a total amount of light quantums produced in the system till achieving the maximum CL intensity values.

[4] = blood serum, oral 8 days 30 mg/kg
[5] = blood serum, oral 8 days, daily dose 30.0 mg/kg
[6] = blood serum, 10 µg/kg for 10 days
[7] = blood, oral last four days, 50 µg/kg
[8] = series with Control - 2 (9.1), […]
[9] = blood, oral last four days, 500 µg/kg
[10] = 0.01 mM, control of the series as in the table
[11] = 0.1 mM, control of the series as in the table
[12] = 1 mM, control of the series 7839 ± 171, 1120 ± 163, 4974 ± 283 or 1332 ± 172

CCOC(=O)c1c(CSc2ccccc2)n(C)c2cc(Br)c(O)c(CN(C)C)c12 [Arbidol]
MLT, days ([1]; series with Control - 2 (9.1), 100 mg/kg, 24 and 2 hours prior and 3 days post infection): 13.88*^2 days | Survival rate in percent ([1]; series with Control - 2 (34.5), 100 mg/kg, 24 and 2 hours prior and 3 days post infection): 94.7*^2% | Protection degree in percent ([1]; series with Control - 2, 100 mg/kg, 24 and 2 hours prior and 3 days post infection): 60.2% | MLT, days ([1]; series with control - 1 (5.76), 100 mg/kg, 24 and 2 hours prior and 3 days post infection): 9.22* days | Survival rate in percent ([1]; series with control - 1 (16.7), 100 mg/kg, 24 and 2 hours prior and 3 days post infection): 43.4* percent | Protection degree in percent ([1]; series with control - 1, 100 mg/kg, 24 and 2 hours prior and 3 days post infection): 26.7%

O=C1CC[C@@H](C(=O)NCCc2c[nH]cn2)N1 [LII, Pyroglutamylhistamine]
Hexenal sleep duration [2]: 21.14 ± 1.39 min

O=C(O)CCCC(=O)NCCc1c[nH]c2ccc(OCc3ccccc3)cc12 [XIV, N-GLUTARYL-O-BENZYLSEROTONIN]
Growth inhibition percent [3]: 68% | Tumor volume (mm^3) [3]: 779 ± 94** mm^3

COc1cc(C2Oc3cc([C@H]4Oc5cc(O)cc(O)c5C(=O)[C@@H]4O)ccc3OC2CO)ccc1O (some centres unmarked) [Legalon, reference compound]
Cholesterol level, mg/100 ml VLDL-CS (mongrel female rats; blood serum, TG/5, oral 8 days 30 mg/kg): 15.7 ± 1.1 p<0.05 mg/100 ml | Cholesterol level, mg/100 ml LDL-CS (mongrel female rats; blood serum, calculated by formula, oral 8 days 30 mg/kg): 20.1 ± 1.1 p<0.01 mg/100 ml | Cholesterol level, mg/100 ml HDL-CS (mongrel female rats; [4]): 54.8 ± 2.5 mg/100 ml | Cholesterol level, mg/100 ml total-CS (mongrel female rats; [4]): 90.9 ± 3.4 mg/100 ml | TG level, mg/100ml (mongrel female rats; [4]): 78.0 ± 6.2 p<0.05 mg/100ml | ALT, nM/dl (mongrel female rats; [5]): 622 ± 36 nM/dl | AST, nM/dl (mongrel female rats; [5]): 531 ± 22 nM/dl | Lipid composition (in percent of total lipids) FCS (mongrel female rats; liver, oral 8 days 30 mg/kg): 15.0 ± 0.4 p<0.01% of total lipids | Lipid composition (in percent of total lipids) Phospholipids (mongrel female rats; liver, oral 8 days 30 mg/kg): 19.7 ± 1.1% of total lipids | Lipid composition (in percent of total lipids) Triglycerides (mongrel female rats; liver, oral 8 days 30 mg/kg): 44.1 ± 1.9% of total lipids | Hepatic MDA, nM/l (mongrel female rats; 30.0 mg/kg): 4.17 ± 0.31 p<0.001 nM/l | Serum MDA, nM/l (mongrel female rats; 30.0 mg/kg): 5.58 ± 0.15 nM/l

O=C(O)c1cccnc1 [nicotinic acid, reference compound]
HDL-CS (mongrel male rats; [6]): 42.1 ± 4.2***^1.2 | LDL-CS+ VLDL-CS (mongrel male rats; [6]): 25.7 ± 2.8***^2 | Total-CS (mongrel male rats; [6]): 65.7 ± 3.5 | Triglycerids (mongrel male rats; [6]): 89.4 ± 6.2***^2 | Kcs (mongrel male rats; 10 µg/kg for 10 days): 0.56***^2

CC(=O)NC(CC(=O)O)C(=O)NCCc1c[nH]cn1 (stereo not drawn) [LI, N-Acethyl- α-Aspartylhistamine]
HDL-CS (mongrel male rats; [7]): 39,8±1,6**^A | LDL-CS+ VLDL-CS (mongrel male rats; [7]): 59,3±3,5*^A | Total CS (mongrel male rats; [7]): 99,1±4,5 | Triglycerides (mongrel male rats; [7]): 132,1±17,4**^A | Kcs (mongrel male rats; oral last four days, 50 µg/kg): 1,49±0,07***^A

NCCCC(=O)NCCc1c[nH]cn1 [compound XLVII, γ-Aminobutyrylhistamine]
Growth inhibition percent [3]: 45% | Tumor volume (mm^3) [3]: 826 ± 119* mm^3 | MLT [1, 8]: 10.0 days | MLT, days [1, 8]: 13.0*^2 days | Survival rate in percent ([1]; series with Control - 2 (34.5), 50 µg/kg orally): 83.3*^2% | Survival rate in percent ([1]; series with Control - 2 (34.5), 500 µg/kg orally): 79.3*^2% | Protection degree in percent ([1]; series with Control - 2, 50 µg/kg orally): 48.8% | Protection degree in percent ([1]; series with Control - 2, 500 µg/kg orally): 44.8% | HDL-CS (mongrel male rats; [7]): 44,1±1,9**^A | LDL-CS+ VLDL-CS (mongrel male rats; [7]): 42,4±1,7***^A | Total CS (mongrel male rats; [7]): 86,5±3,9*^A | HDL-CS (mongrel male rats; [9]): 40,8±4,8 | LDL-CS+ VLDL-CS (mongrel male rats; [9]): 50,8±3,6**^A | Total CS (mongrel male rats; [9]): 90,0±2,4 | Triglycerides (mongrel male rats; [9]): 116,7±10,8*^A | Kcs (mongrel male rats; oral last four days, 50 µg/kg): 0,96±0,04***^A | Kcs (mongrel male rats; oral last four days, 500 µg/kg): 1,27±0,09

O=C(O)CCCC(=O)NCCc1ccccn1 [compound XX, N-GLUTARYL-2-(2-AMINOETHYL)PYRIDINE]
relative effect: I+/I- (hydroxyl radical; 0.01 mM): 0.85 | Chemiluminiscence intensity (mV) + σn-1 (hydroxyl radical; [10]): 4205 ± 234 mV | relative effect: I+/I- (hydroxyl radical; 0.1 mM): 0.81 | Chemiluminiscence intensity (mV) + σn-1 (hydroxyl radical; [11]): 4018 ± 201 mV | relative effect: I+/I- (hydroxyl radical; 1 mM): 0.11 | Chemiluminiscence intensity (mV) + σn-1 (hydroxyl radical; [12]): 536 ± 124 mV | Growth inhibition percent [3]: 16% | Tumor volume (mm^3) [3]: 1148 ± 112 mm^3

O=C(O)CCCC(=O)NCCc1ccccc1 [XXI]
relative effect: I+/I- (hydroxyl radical; 0.01 mM): 0.81 | Chemiluminiscence intensity (mV) + σn-1 (hydroxyl radical; [10]): 4036 ± 186 mV | relative effect: I+/I- (hydroxyl radical; 0.1 mM): 0.66 | Chemiluminiscence intensity (mV) + σn-1 (hydroxyl radical; [11]): 3265 ± 184 mV | relative effect: I+/I- (hydroxyl radical; 1 mM): 0.05 | Chemiluminiscence intensity (mV) + σn-1 (hydroxyl radical; [12]): 228 ± 72 mV | relative effect: 1+/I- (superoxide anion-radical; 0.1 mM): 0.89 | Chemiluminiscence intensity (mV) + σn-1 (superoxide anion-radical; [11]): 6460 ± 166 mV | relative effect: 1+/I- (superoxide anion-radical; 1 mM): 0.58 | Chemiluminiscence intensity (mV) + σn-1 (superoxide anion-radical; 1 mM, control of the series 5616 ± 173, 5391 ± 195, 7290 ± 128 or 6776 ± 150): 4232 ± 146 mV | Growth inhibition percent [3]: 25% | Tumor volume (mm^3) [3]: 1023 ± 207 mm^3

CC(=O)NC(CC(=O)NCCc1c[nH]cn1)C(=O)O (stereo not drawn) [L, N-Acethyl-β -Aspartylhistamine]
HDL-CS (mongrel male rats; [7]): 31,0±2,1 | LDL-CS+ VLDL-CS (mongrel male rats; [7]): 63,1±2,4*^A | Total CS (mongrel male rats; [7]): 94,1±2,1 | Triglycerides (mongrel male rats; [7]): 141,6±12,6**^A | Kcs (mongrel male rats; oral last four days, 50 µg/kg): 2,03±0,09***^A

O=C(O)CCCC(=O)NCCN1CCOCC1 [XIX, N-GLUTARYL-4-(2-AMINOETHYL)MORPHOLINE]
Chemiluminiscence intensity (mV) + σn-1 (hydroxyl radical; 1 µM, control of the series as in the table): 49089 ± 269 mV | relative effect: I+/I- (hydroxyl radical; 0.01 mM): 0.77 | Chemiluminiscence intensity (mV) + σn-1 (hydroxyl radical; [10]): 3846 ± 184 mV | relative effect: I+/I- (hydroxyl radical; 0.1 mM): 0.68 | Chemiluminiscence intensity (mV) + σn-1 (hydroxyl radical; [11]): 3377 ± 222 mV | relative effect: I+/I- (hydroxyl radical; 1 mM): 0.13 | Chemiluminiscence intensity (mV) + σn-1 (hydroxyl radical; [12]): 626 ± 56 mV | Growth inhibition percent [3]: 28% | Tumor volume (mm^3) [3]: 994 ± 173 mm^3

O=C(O)CCCC(=O)NCCc1c[nH]c2ccc(O)cc12 [compound XV, N-GLUTARYLSEROTONIN]
Growth inhibition percent [3]: 63% | Tumor volume (mm^3) [3]: 889 ± 67** mm^3

COc1ccc2[nH]cc(CCNC(=O)CCCC(=O)O)c2c1 [compound XVI, N-GLUTARYL-5-O-METHYLSEROTONIN]
Growth inhibition percent [3]: 56% | Tumor volume (mm^3) [3]: 1076 ± 69** mm^3
